Literature values in US20070196465A1, “Treatment with dihydropyridine calcium channel blockers and omega-3 fatty acids and a combination product thereof” (priority 2005, published 2007).

How the values were obtained:
cells = conditions: dihydropyridine alone
L-type Ca^2+ channel = conditions: dihydropyridine alone
heart = conditions: Finkel et al. 1992

SMILES	effect on calcium influx / cytosolic free calcium and cell contraction (cells)	effect on peak L-type Ca2+ channel current, cytosolic Ca2+ and cell contraction (L-type Ca^2+ channel)	inotropic effect (heart)
COC(=O)C1=C(C)NC(C)=C([N+](=O)[O-])C1c1ccccc1C(F)(F)F (stereo not shown) [Bay K 8644]	increases in calcium influx and the contracture of cells	significantly increases peak L-type Ca^2+ channel current, cytosolic Ca^2+, and cell contraction	concentration-dependent positive inotrope
CCCCC/C=C\C/C=C\C/C=C\C/C=C\CCCC(=O)O [arachidonic acid]	–	–	concentration-dependent negative inotropes
